Measured values taken from PMC6222898, “Cinnamoyl-Oxaborole Amides: Synthesis and Their in Vitro Biological Activity” (Molecules : A Journal of Synthetic Chemistry and Natural …, 2018).
≈ marks a conversion by molar mass, not a printed value. Like-named read-outs stand apart in the source and are kept apart here.

What was measured:
[1] = tested on: Mycobacterium tuberculosis H37Rv; assay: In vitro antimycobacterial broth microdilution assay; format: cell-based; conditions: concentration inhibiting mycobacterial growth by 99%
[2] = tested on: Trypanosoma brucei brucei 427 trypomastigotes; assay: In vitro antitrypanosomal assay (resazurin viability); format: cell-based; conditions: T. b. brucei 427, 24 h incubation
Protocol: Trypanosoma brucei brucei 427 trypomastigotes were cultured in Iscove’sss Modified Dulbecco’s medium (IMDM, Lonza, Basel Switzerland) supplemented with 10% fetal calf serum, HMI-9 supplement, hypoxanthine, and penicillin/streptomycin at 37 °C in a 5% CO2 incubator. […] Reduction of resazurin to resorufin by viable parasites was assessed by fluorescence readings (excitation 560 nm, emission 590 nm) in a Spectramax M3 plate reader (Molecular Devices, San Jose, CA, USA). Fluorescence readings were converted to % parasite viability relative to the average readings obtained from untreated control wells. IC50 values were determined by plotting % viability vs. log[compound] and performing non-linear regression using GraphPad Prism (v. 5.02) software.

[3] = tested on: Trichomonas vaginalis G3 strain; assay: In vitro antitrichomonal assay (hemocytometer counts); format: cell-based; conditions: 24 h, read-out: IC50 T. vaginalis
[4] = In vitro cytotoxicity assay (resazurin); format: cell-based; conditions: human, HeLa cells; 20 μM compound; 48 h exposure, 24 h
Protocol: HeLa cells (Cellonex, Johannesburg, South Africa) seeded in 96-well plates were incubated with 20 μM test compounds for 24 h and cell viability assessed using a resazurin fluorescence assay as previously described.

[5] = tested on: Trypanosoma brucei brucei 427 trypomastigotes; conditions: cited from earlier work
[6] = tested on: Dd2; design: method as in PMID 11310613; conditions: Figure 2; cited from earlier work

Row | SMILES | melting point | MIC99 [1] | IC50 [2] | IC50 [3] | viability at 48 h, 20 µM [4] | IC50 antitrypanosomal ([5]; T. b. brucei S427, footnote b: IC50 in μg/mL) | IC50 [6] | IC50 antitrypanosomal ([5]; T. b. brucei, footnote a: IC50 in μg/mL)
1 | O=C(/C=C/c1ccc(Br)cc1)Nc1ccc2c(c1)B(O)OC2 [Compound 5d, (E)-3-(4-Bromophenyl)-N-(1-hydroxy-1,3-dihydrobenzo[c][1,2]oxaborol-6-yl)acrylamide] | 206 to 210 °C | 10.7 µM (≈ 3.83 µg/mL) | 470 ± 40 nM | 12.6 ± 0.28 µM | 89.9 ± 5.12% |  |  | 
2 | O=C(CCc1ccccc1)Nc1ccc2c(c1)B(O)OC2 [Compound 2] |  |  |  |  |  | 0.14 ^b μg/mL |  | 
3 | COc1ccc(/C=C/C(=O)Nc2ccc3c(c2)B(O)OC3)cc1 [Compound 5e, (E)-N-(1-Hydroxy-1,3-dihydrobenzo[c][1,2]oxaborol-6-yl)-3-(4-methoxyphenyl)acrylamide] | 190 to 192 °C | 18.7 µM (≈ 5.78 µg/mL) | 660 ± 30 nM | 11.7 ± 0.28 µM | 102 ± 2.34% |  |  | 
4 | Cc1ccc(CC(=O)Nc2ccc(NC(=O)/C=C/c3ccc(OCc4ccccc4)cc3)cc2C(=O)c2ccccc2)cc1 [Compound 4, 2,5-bisacylaminobenzonephone] |  |  |  |  |  |  | 650 nM | 
5 | CC[C@H]1CN2CCc3cc(OC)c(OC)cc3[C@@H]2C[C@@H]1C[C@H]1NCCc2cc(OC)c(OC)cc21 [EM, emetine, reference compound] |  |  |  |  | 3.19% |  |  | 
6 | COc1ccc(/C=C/C(=O)Nc2ccc3c(c2)B(O)OC3)cc1OC [Compound 5f, (E)-3-(3,4-Dimethoxyphenyl)-N-(1-hydroxy-1,3-dihydrobenzo[c][1,2]oxaborol-6-yl)acrylamide] | 188 to 190 °C |  | 8710 ± 650 nM | > 50 µM | 109.9 ± 0.84% |  |  | 
7 | CC1(C)OB(O)c2cc(NC(=O)c3ccc(F)cc3C(F)(F)F)ccc21 [Compound 1, SCYX-7158] |  |  |  |  |  |  |  | 0.292 ± 0.019 ^a μg/mL
8 | O=C(/C=C/c1ccccc1)Nc1ccc2c(c1)B(O)OC2 [Compound 5a, (E)-N-(1-Hydroxy-1,3-dihydrobenzo[c][1,2]oxaborol-6-yl)cinnamamide] | 182 to 184 °C | 61.8 µM (≈ 17.2 µg/mL) | 130 ± 20 nM | 15.3 ± 0.33 µM | 108 ± 5.35% |  |  | 
9 | N=C(N)c1ccc(OCCCCCOc2ccc(C(=N)N)cc2)cc1 [PE, pentamidine, reference compound] |  |  | 1.2 ± 0.1 nM |  |  |  |  | 
10 | O=C(/C=C/c1ccc([N+](=O)[O-])cc1)Nc1ccc2c(c1)B(O)OC2 [Compound 5c, (E)-N-(1-Hydroxy-1,3-dihydrobenzo[c][1,2]oxaborol-6-yl)-3-(4-nitrophenyl)acrylamide] | 176 to 180 °C | 26.5 µM (≈ 8.59 µg/mL) | 920 ± 40 nM | 10.2 ± 0.56 µM | 94.3 ± 28.8% |  |  | 
11 | Cc1ncc([N+](=O)[O-])n1CCO [ME, metronidazole, reference compound] |  |  |  | 0.53 µM |  |  |  | 
12 | O=C(/C=C/c1cccc([N+](=O)[O-])c1)Nc1ccc2c(c1)B(O)OC2 [Compound 5b, (E)-N-(1-Hydroxy-1,3-dihydrobenzo[c][1,2]oxaborol-6-yl)-3-(3-nitrophenyl)acrylamide] | 176 to 178 °C | 107 µM (≈ 34.7 µg/mL) | 130 ± 10 nM | 41.7 ± 0.23 µM | 87 ± 1.59% |  |  | 
13 | O=C(/C=C/c1ccc2c(c1)OCO2)Nc1ccc2c(c1)B(O)OC2 [Compound 5g, (E)-3-(Benzo[d][1,3]-6-dioxol-5-yl)-N-(1-hydroxy-1,3-dihydrobenzo[c][1,2]oxaborol-6-yl)acrylamide] | 145 to 148 °C | 40.7 µM (≈ 13.2 µg/mL) | 86 ± 2 nM | 22.8 ± 1.02 µM | 132 ± 26.6% |  |  | 
14 | CO[C@H]1/C=C/O[C@@]2(C)Oc3c(C)c(O)c4c(O)c(c(/C=N/N5CCN(C)CC5)c(O)c4c3C2=O)NC(=O)/C(C)=C\C=C\[C@H](C)[C@H](O)[C@@H](C)[C@@H](O)[C@@H](C)[C@H](OC(C)=O)[C@@H]1C [RE, rifampicin, reference compound] |  | 0.003 µM (≈ 0.00247 µg/mL) |  |  |  |  |  | 
